In EP0148660A1, “Beta-carboline derivatives, process for their preparation and medicaments containing them” (Etablissement Public dit: CENTRE NATIONAL DE LA RECHERCHE …, priority 1983, dated 1985):
pIC50: −log10 of the molar value.

Tests used:
[1] = molecular target: récepteur des benzodiazépines; assay: Displacement of 3H-flunitrazepam from its receptor in rat cortex tissue (in vitro); assay type: binding; conditions: for pIC50: 3H-flunitrazépam 4 nM, cortex du Rat, 0°, 60 mn, pH 7,4
Description: Pour déterminer l'activité pharmacologique des molécules de cette invention, leur affinité pour le récepteur des benzodiazépines a d'abord été étudiée. Cette affinité est déterminée par l'aptitude de la molécule à déplacer une benzodiazépine radioactive (le flunitrazépam tritié) de son récepteur.
Ce pouvoir de déplacement de la molécule est indiqué par son IC50, c'est-à-dire la concentration du produit nécessaire pour déplacer 50 % des liaisons spécifiques du ^3H-flunitrazépam avec son récepteur, à partir de tissus préparés du cerveau du Rat.
Pour ces essais in vitro, il s'agit d'incuber à 0° pour 60 mn une suspension de tissus provenant du cortex du Rat (= 10 mg de tissu par échantillon) dans un milieu tamponné (pH 7,4, 0,05 M Tris-HCl) en présence d'une concentration fixe de ^3H-flunitrazépam (= 4 nM, 89 Ci/mmole) et d'une concentration variable du produit (10^-3 à 10^-9 M). La suspension est ensuite filtrée et la radioactivité restant sur le filtre est déterminée par scintillation. L'information obtenuepermet de dessiner une courbe de déplacement contre la concentration du produit et de calculer l'IC50 du produit.

[2] = tested on: Babouin photosensible; assay: Photosensitive baboon, intermittent light stimulation (SLI); assay type: in vivo
Description: Cette molécule appartient à la classe des agonistes inverses. Elle provoque des convulsions. Le modèle utilisé est le Babouin photosensible. Sur ce modèle, l'application de stimulation lumineuse intermittente (SLI) par l'intermédiaire d'une lampe stroboscopique provoque des manifestations épileptiques d'amplitude variable. Suivant l'intensité de leur réponse, les animaux sont classés de 0 à + 4.
2 animaux PP 86 et 88 ont été utilisés. Le 86 est + 3 au bout de 30 secondes de SLI, le 5.5.1983. L'administration de l'éthylamino-3-β-carboline (1 mg/kg) réduit cette latence à 10 secondes, 2 minutes après l'injection. lh30 après l'injection, cette latence est toujours très diminuée (20 secondes). […] Ces résultats sont très différents de ceux de la méthyl-S-carboline dont l'effet convulsivant disparait au bout de 20 minutes chez le Babouin.
Le 88 a montré le même type de résultat. Après 15 secondes de SLI, il est + 3 le 5.5.1983. Après l'administration de 2 mg/kg de N-éthyl carboline, la SLI provoque un stade + 3 au bout de 5 secondes. […] Après 5 heures, la latence est toujours raccourcie (10 secondes).

[3] = tested on: souris; assay: Antagonism of the anticonvulsant action of diazepam (PTZ) in mice; assay type: in vivo; conditions: PTZ 70 mg/kg s.c.; diazépam 1 mg/kg s.c. 25 minutes before, carbamate 10 mg/kg 15 minutes before; 80 % of controls convulse
Description: ① Absence d'effets antagonistiques sur l'action anticonvulsivante du diazépam :
20 souris (30 g, ♂) ont été traitées avec 70 mg/kg s.c. de PTZ. Une moitié a servi de contrôle; l'autre moitié a reçu 1 mg/kg s.c. de diazépam 25 minutes avant le PTZ et 10 mg/kg de carbamate 15 minutes avant le PTZ.

[4] = tested on: récepteur des benzodiazépines; assay: In vivo displacement of tritiated flunitrazepam in mouse brain regions; design: species or system souris; conditions: for flunitrazépam tritié déplacé: 10 mg/kg; for DE50 (dose effective pour déplacer 50 % du flunitrazépam tritié): s.c.
Description: Ceci est démontré par des tests de déplacement du flunitrazépam tritié par le méthyl β-carbamate invivo.
200 µCi/kg de flunitrazépam tritié sont injectées i.v. chez la souris. Après 10 minutes, une dose connue du méthyl β-carbamate (allant de 2,5 mg/kg jusqu'à 10 mg/kg) est injectée s.c. et 10 minutes plus tard, l'animal est sacrifié. Le cerveau est rapidement disséqué. Le cervelet, le cortex et l'hippocampe sont isolés et broyés séparément et ensuite filtrés. La quantité de radio-activité restant sur le filtre est inversement proportionnelle au pouvoir de déplacement du méthyl β-carbamate.

[5] = tested on: souris; assay: Convulsions induced by pentylenetetrazol (PTZ) in mice; assay type: in vivo; conditions: PTZ 70 mg/kg s.c.
Description: 40 souris "Swiss", d, 30 g recoivent 70 mg/kg s.c. de PTZ. Les souris sont divisées en 4 lots : 1 lot contrôle, 1 lot reçoit 10 mg/kg s.c. de méthyl carbamate, 5 minutes avant le PTZ, 1 lot la même dose de méthyl carbamate 15 minutes avant, et le dernier lot une dose de 1 mg/kg de méthyl carbamate 15 minutes avant. 60 % à 80 % des souris présentent des convulsions dans les 4 lots sans différences statistiquement significatives entre les lots.

[6] = tested on: souris; assay: Blockade of diazepam-induced sedation, rotarod in mice; assay type: in vivo; conditions: 10 mg/kg s.c.; diazépam 2 mg/kg s.c.
Description: ②. Blocage de la sédation induite par le diazépam :
20 souris (30 g, ♂) ont été entraînées sur le rotarod (bâton de 2,5 cm 0 tournant à 4 rev/mn) pendant 5 minutes. Les souris entraînées seront utilisées si, lors du test précédant l'injection, elles restent 1 minute sans tomber du bâton. Les souris reçoivent toutes 2 mg/kg s.c. de diazépam et sont testées toutes les 10 minutes. Le pourcentage de souris restant 1 minute sur le bâton est indiqué en ordonnée de la figure.

[7] = tested on: souris; assay: Antagonism of convulsions induced by méthyl β-carboline in mice; assay type: in vivo; conditions: 1 mg/kg s.c. 5 minutes before méthyl β-carboline 1 to 10 mg/kg s.c.
Description: Par contre, cette molécule antagonise les effets convulsivants induits par un agoniste inverse de la méthyl-β-carboline.
100 souris (30 g, ♂) sont traitées par des doses croissantes de méthyl B-carboline de 1 mg à 10 mg/kg s.c. La moitié des souris a été prétraitée par 1 mg/kg de méthyl carbamate s.c. 5 minutes avant l'injection de méthyl β-carboline.

[8] = tested on: souris; assay: Conflict test (Skinner box), anxiolytic effect of diazepam in mice; assay type: in vivo
Description: ③. Absence d'effet antagoniste sur les effets anxiolytiques du diazépam : • 9 souris ont été entraînées dans un test de conflit décrit par PRADO et al. (Nature 301, 64-66, 1983). En bref les animaux privés de nourriture sont soumis à des séances quotidiennes de 15 minutes dans une boîte de Skinner. Ces sessions comprennent successivement : 5 mn sans conflit (où la souris reçoit une boulette de nourriture chaque fois qu'elle appuie sur la pédale), 5 mn de conflit (où l'appui sur la pédale entraîne à la fois la délivrance d'une boulette et un choc électrique léger), 5 mn sans conflit. Les performances des souris (nombre d'appuis/mn) baissent durant les phases de conflit.

[9] = tested on: Babouin photosensible; conditions: comparison; cited from earlier work

CCOC(=O)c1cc2c(cn1)[nH]c1ccccc12 [-CO2CH2CH3, ester éthyliquede l'acide β-carboline-3-carboxylique, reference compound]
pIC50 [1]: 8.70

Nc1cc2c(cn1)[nH]c1ccccc12 [-NH2, amino-3-β-carboline]
pIC50 [1]: 4.60

CCNc1cc2c(cn1)[nH]c1ccccc12 [-NHCH2CH3, éthylamino-3-β-carboline]
persistence of the effect on latency ([2]; animal 88, 2 mg/kg): persiste une heure
latence du stade + 3 sous SLI ([2]; animal 88, 2 mg/kg (15 secondes before treatment)): 5 secondes
latence du stade + 3 sous SLI ([2]; animal 88, 2 mg/kg, après 5 heures): 10 secondes
spontaneous seizure after injection ([2]; animal PP 86, 1 mg/kg): crise épileptique tonico-clonique spontanée
latence du stade + 3 sous SLI ([2]; animal PP 86, 1 mg/kg, 1h30 après l'injection): 20 secondes
latence du stade + 3 sous SLI ([2]; animal PP 86, 1 mg/kg, 2 minutes après l'injection (30 secondes before treatment)): 10 secondes
pIC50 [1]: 6.34

O=CNc1cc2c(cn1)[nH]c1ccccc12 [-NHCHO, formylamino-3-β-carboline]
pIC50 [1]: 5.33

CCOC(=O)Nc1cc2c(cn1)[nH]c1ccccc12 [-NHCO2CH2CH3, éthoxycarbonylamino-3-β-carboline]
pIC50 [1]: 7.10

COC(=O)Nc1cc2c(cn1)[nH]c1ccccc12 [-NHCO2CH3, méthoxycarbonylamino-3-β-carboline]
convulsions in mice treated with diazépam + méthyl carbamate [3]: aucun phénomène convulsif
selectivity between brain regions / receptor sub-classes ([4]; cervelet (BZ1) versus cortex and hippocampe (BZ1 and BZ2), souris): sélectivité pour les récepteurs du cervelet
flunitrazépam tritié déplacé ([4]; cervelet): ~100%
DE50 (dose effective pour déplacer 50 % du flunitrazépam tritié) ([4]; cervelet, souris): 4 mg/kg
flunitrazépam tritié déplacé ([4]; cortex): ~75%
DE50 (dose effective pour déplacer 50 % du flunitrazépam tritié) ([4]; cortex, souris): 5 mg/kg
flunitrazépam tritié déplacé ([4]; hippocampe): ~75%
DE50 (dose effective pour déplacer 50 % du flunitrazépam tritié) ([4]; hippocampe, souris): 6 mg/kg
activité agonistique sur les convulsions induites par le PTZ [5]: dénuée d'activité agonistique
pIC50 [1]: 7.15
IC50 compared with éthylamino-3-β-carboline ([1]; relative to the IC50 of éthylamino-3-β-carboline): presque dix fois plus faible
3H-flunitrazépam déplacé ([1]; à haute concentration): 80%
effect on the sedative effect of diazépam (rotarod) [6]: antagonise l'effet sédatif du diazépam
effect on convulsions induced by méthyl β-carboline [7]: antagonise d'une façon compétitive
effect on the anxiolytic effect of diazépam (conflict test) ([8]; given simultaneously with diazepam 5 mg/kg s.c.): ne bloque pas cet effet anxiolytique du diazépam

O=C(Nc1cc2c(cn1)[nH]c1ccccc12)C(F)(F)F [-NHCOCF3, trifluoroacétylamino-3-β-carboline]
pIC50 [1]: 5.20

CC(=O)Nc1cc2c(cn1)[nH]c1ccccc12 [-NHCOCH3, acétylamino-3-β-carboline]
pIC50 [1]: 5.40

CS(=O)(=O)Nc1cc2c(cn1)[nH]c1ccccc12 [-NHSO2CH3, méthylsulfonylamino-3-β-carboline]
pIC50 [1]: 4.21

CN1C(=O)CN=C(c2ccccc2F)c2cc([N+](=O)[O-])ccc21 [Flunitrazepam, reference compound]
pIC50 [1]: 8.40

CN1C(=O)CN=C(c2ccccc2)c2cc(Cl)ccc21 [diazepam, reference compound]
effect on the fall of lever presses during conflict ([8]; 5 mg/kg s.c.): s'oppose à cette baisse des appuis

COC(=O)c1cc2c(cn1)[nH]c1ccccc12 [méthyl-S-carboline, méthyl β-carbolyne-3-carboxylate]
time after which the convulsant effect disappears [9]: 20 min
